Converted amounts (≈) assume the structure as drawn. Read-outs that look alike come from different tables or passages of the source.
Columns and labels:
Format in all cases: cell-based
Strep. D = assay: standard in vitro agar dilution MIC (Table I), Strep. D
E. coli = assay: standard in vitro agar dilution MIC (Table I), E. coli; conditions: Escherichia coli
Staph. aureus [1] = assay: standard in vitro agar dilution MIC (Table I), Staph. aureus
Staph. epi [2] = assay: standard in vitro agar dilution MIC (Table I), Staph. epi
H. influ. [3] = assay: standard in vitro agar dilution MIC (Table I), H. influ.
Source text: (§1) The antibacterial activity of several compounds of the invention has been determined in standard in vitro agar dilution assays against a variety of gram positive and gram negative microorganisms. The following Tables present typical minimum inhibitory concentrations (MIC's) in μg/ml for several compounds of the invention when evaluated against the indicated microorganisms. MIC's for several known compounds are also presented for comparison.

Klebsiella = assay: standard in vitro agar dilution MIC (Table I), Klebsiella; conditions: Table I, agar dilution
Strep. A = assay: standard in vitro agar dilution MIC (Table I), Strep. A
Strep. PN = assay: standard in vitro agar dilution MIC (Table I), Strep. PN; conditions: strain PARK
Staph. aureus [4] = assay: Expanded Spectrum MIC (Table II), Staph. aureus
Source text: as §1

Staph. epi [5] = assay: Expanded Spectrum MIC (Table II), Staph. epi
Source text: as §1

H. influ. [6] = assay: Expanded Spectrum MIC (Table II), H. influ.
Source text: as §1

[7] = Table I, agar dilution, strain EPI1, read-out: MIC
[8] = Klebsiella, strain X26, read-out: MIC
[9] = Klebsiella, strain X68, read-out: MIC

`CC1(C)S[C@@H]2[C@H](NC(=O)[C@H](N)c3ccccc3)C(=O)N2[C@H]1C(=O)O` [Ampicillin, reference compound] showed an MIC (Strep. D; strain 2041, read-out: MIC) of 2 µg/mL (≈ 5.72 µM), an MIC (Strep. D; strain X66, read-out: MIC) of 4 µg/mL (≈ 11.4 µM) and an MIC (E. coli; strain EC14) of 4 µg/mL (≈ 11.4 µM). The MIC (E. coli; strain N10) was 8 µg/mL (≈ 22.9 µM), the MIC (Staph. aureus [1]; Staphylococcus aureus, strain S13E) was 64 µg/mL (≈ 183 µM) and the MIC (Staph. epi [2]; [7]) was 8 µg/mL (≈ 22.9 µM). For the same molecule, the MIC (H. influ. [3]; strain 76) was 16 µg/mL (≈ 45.8 µM), the MIC (H. influ. [3]; strain C.L.) was 0.5 µg/mL (≈ 1.43 µM) and the MIC (Klebsiella; [8]) was 16 µg/mL (≈ 45.8 µM). The MIC (Klebsiella; [9]) was 16 µg/mL (≈ 45.8 µM).

With `CC1=C(C(=O)O)N2C(=O)[C@@H](NC(=O)[C@H](N)c3ccccc3)[C@H]2SC1` [Cephalexin, reference compound] the MIC (Strep. A) was 0.5 µg/mL (≈ 1.44 µM), the MIC (Strep. PN; read-out: MIC) was 2 µg/mL (≈ 5.76 µM) and the MIC (Staph. epi [2]) was 8 µg/mL (≈ 23 µM). The MIC (Staph. epi [2]; [7]) was 32 µg/mL (≈ 92.1 µM), the MIC (H. influ. [3]; strain 76) was 8 µg/mL (≈ 23 µM) and the MIC (H. influ. [3]; strain C.L.) was 8 µg/mL (≈ 23 µM). It also gave an MIC (Klebsiella; [8]) of 4 µg/mL (≈ 11.5 µM) and an MIC (Klebsiella; [9]) of 8 µg/mL (≈ 23 µM).

Molecule `CC1=C(C(=O)O)N2C(=O)C(NC(=O)[C@H](N)c3cc4cc(Cl)ccc4s3)C2SC1` (stereo partly drawn) [Ex. 2, D-7-(5-Chloro-2-benzothienyl)glycylamido-3-methyl-3-cephem-4-carboxylic acid] has an MIC (Strep. A; Table I, agar dilution, strain C203, read-out: MIC) of 0.125 µg/mL (≈ 0.285 µM), an MIC (Staph. aureus [4]; Staphylococcus aureus, strain 239, read-out: MIC) of 0.5 µg/mL (≈ 1.14 µM) and an MIC (Staph. aureus [4]; Staphylococcus aureus, strain S224, read-out: MIC) of 0.25 µg/mL (≈ 0.571 µM). For the same molecule, the MIC (Staph. aureus [4]; Staphylococcus aureus, strain S225, read-out: MIC) was 0.25 µg/mL (≈ 0.571 µM), the MIC (Staph. aureus [4]; Staphylococcus aureus, strain S226, read-out: MIC) was 0.5 µg/mL (≈ 1.14 µM) and the MIC (Staph. aureus [4]; Staphylococcus aureus, strain S227, read-out: MIC) was 0.25 µg/mL (≈ 0.571 µM). For the same molecule, the MIC (Staph. aureus [4]; Staphylococcus aureus, strain S228, read-out: MIC) was 0.25 µg/mL (≈ 0.571 µM), the MIC (Staph. aureus [4]; Staphylococcus aureus, strain S229, read-out: MIC) was 0.5 µg/mL (≈ 1.14 µM) and the MIC (Staph. aureus [4]; Staphylococcus aureus, strain S230, read-out: MIC) was 0.25 µg/mL (≈ 0.571 µM). The MIC (Staph. aureus [4]; Staphylococcus aureus, strain S231, read-out: MIC) was 0.25 µg/mL (≈ 0.571 µM), the MIC (Staph. aureus [4]; Staphylococcus aureus, strain S234, read-out: MIC) was 0.5 µg/mL (≈ 1.14 µM) and the MIC (Staph. aureus [4]; Staphylococcus aureus, strain S237, read-out: MIC) was 0.5 µg/mL (≈ 1.14 µM). It also gave an MIC (Staph. aureus [4]; Staphylococcus aureus, strain S238, read-out: MIC) of 1 µg/mL (≈ 2.28 µM), an MIC (Staph. epi [5]; strain 219, read-out: MIC) of 0.25 µg/mL (≈ 0.571 µM) and an MIC (Staph. epi [5]; strain 269, read-out: MIC) of 1 µg/mL (≈ 2.28 µM). For the same molecule, the MIC (Staph. epi [5]; strain 270, read-out: MIC) was 1 µg/mL (≈ 2.28 µM), the MIC (Staph. epi [5]; strain 285, read-out: MIC) was 0.5 µg/mL (≈ 1.14 µM) and the MIC (Staph. epi [5]; strain 286, read-out: MIC) was 0.25 µg/mL (≈ 0.571 µM). It also gave an MIC (Staph. epi [5]; strain EPI1, read-out: MIC) of 4 µg/mL (≈ 9.13 µM), an MIC (Strep. PN; read-out: MIC) of 0.5 µg/mL (≈ 1.14 µM) and an MIC (Staph. aureus [1]; Staphylococcus aureus, strain V41, read-out: MIC) of 32 µg/mL (≈ 73.1 µM). The MIC (Staph. aureus [1]; Staphylococcus aureus, strain X1.1, read-out: MIC) was 0.5 µg/mL (≈ 1.14 µM), the MIC (Staph. aureus [1]; Staphylococcus aureus, strain X400, read-out: MIC) was 64 µg/mL (≈ 146 µM) and the MIC (H. influ. [6]; strain 76, read-out: MIC) was 8 µg/mL (≈ 18.3 µM). It also gave an MIC (H. influ. [6]; strain 1683, read-out: MIC) of 1 µg/mL (≈ 2.28 µM), an MIC (H. influ. [6]; strain C.L., read-out: MIC) of 32 µg/mL (≈ 73.1 µM) and an MIC (H. influ. [6]; strain M366) greater than 64 µg/mL. It also gave an MIC (H. influ. [6]; strain STEL) greater than 64 µg/mL, an MIC (Staph. epi [2]; Table I, agar dilution, strain 222, read-out: MIC) of 1 µg/mL (≈ 2.28 µM) and an MIC (Staph. epi [2]; [7]) of 4 µg/mL (≈ 9.13 µM). It also gave an MIC (H. influ. [3]; strain 76, read-out: MIC) of 0.5 µg/mL (≈ 1.14 µM), an MIC (H. influ. [3]; strain C.L., read-out: MIC) of 2 µg/mL (≈ 4.57 µM) and an MIC (Klebsiella; [8]) of 32 µg/mL (≈ 73.1 µM).

With `CC1=C(C(=O)O)N2C(=O)C(NC(=O)C(N)c3cc4c(s3)CCCC4)C2SC1` [Ex. 5, D-7-[(4,5,6,7-tetrahydro-2-benzothienyl)glycylamido]-3-methyl-3-cephem-4-carboxylic acid] the MIC (Strep. A; Table I, agar dilution, strain C203) was 0.06 µg/mL (≈ 0.147 µM), the MIC (Staph. aureus [4]; strain 239) was 0.5 µg/mL (≈ 1.23 µM) and the MIC (Staph. aureus [4]; strain S224) was 0.5 µg/mL (≈ 1.23 µM). It also gave an MIC (Staph. aureus [4]; strain S225) of 0.5 µg/mL (≈ 1.23 µM), an MIC (Staph. aureus [4]; strain S226) of 0.5 µg/mL (≈ 1.23 µM) and an MIC (Staph. aureus [4]; strain S227) of 0.5 µg/mL (≈ 1.23 µM). The MIC (Staph. aureus [4]; strain S228) was 0.5 µg/mL (≈ 1.23 µM), the MIC (Staph. aureus [4]; strain S229) was 1 µg/mL (≈ 2.45 µM) and the MIC (Staph. aureus [4]; strain S230) was 0.5 µg/mL (≈ 1.23 µM). The MIC (Staph. aureus [4]; strain S231) was 0.25 µg/mL (≈ 0.613 µM), the MIC (Staph. aureus [4]; strain S234) was 1 µg/mL (≈ 2.45 µM) and the MIC (Staph. aureus [4]; strain S237) was 0.5 µg/mL (≈ 1.23 µM). The MIC (Staph. aureus [4]; strain S238) was 1 µg/mL (≈ 2.45 µM), the MIC (Staph. epi [5]; strain 219) was 0.5 µg/mL (≈ 1.23 µM) and the MIC (Staph. epi [5]; strain 269) was 2 µg/mL (≈ 4.91 µM). It also gave an MIC (Staph. epi [5]; strain 270) of 0.5 µg/mL (≈ 1.23 µM), an MIC (Staph. epi [5]; strain 285) of 1 µg/mL (≈ 2.45 µM) and an MIC (Staph. epi [5]; strain 286) of 0.25 µg/mL (≈ 0.613 µM). It also gave an MIC (Staph. epi [5]; strain EPI1) of 4 µg/mL (≈ 9.82 µM), an MIC (Strep. PN) of 0.25 µg/mL (≈ 0.613 µM) and an MIC (Staph. aureus [1]; strain S13E) of 8 µg/mL (≈ 19.6 µM). For the same molecule, the MIC (Staph. aureus [1]; strain V41) was 16 µg/mL (≈ 39.3 µM), the MIC (Staph. aureus [1]; strain X1.1) was 0.25 µg/mL (≈ 0.613 µM) and the MIC (Staph. aureus [1]; strain X400) was 64 µg/mL (≈ 157 µM). For the same molecule, the MIC (H. influ. [6]; strain 76) was 8 µg/mL (≈ 19.6 µM), the MIC (H. influ. [6]; strain 105) was 4 µg/mL (≈ 9.82 µM) and the MIC (H. influ. [6]; strain 158) was 4 µg/mL (≈ 9.82 µM). For the same molecule, the MIC (H. influ. [6]; strain 164) was 4 µg/mL (≈ 9.82 µM), the MIC (H. influ. [6]; strain 169) was 16 µg/mL (≈ 39.3 µM) and the MIC (H. influ. [6]; strain 171) was 16 µg/mL (≈ 39.3 µM). It also gave an MIC (H. influ. [6]; strain 312) of 4 µg/mL (≈ 9.82 µM), an MIC (H. influ. [6]; strain 1683) of 4 µg/mL (≈ 9.82 µM) and an MIC (H. influ. [6]; strain 1930) of 16 µg/mL (≈ 39.3 µM). For the same molecule, the MIC (H. influ. [6]; strain 4842) was 4 µg/mL (≈ 9.82 µM), the MIC (H. influ. [6]; strain C.L.) was 16 µg/mL (≈ 39.3 µM) and the MIC (H. influ. [6]; strain HESS) was 16 µg/mL (≈ 39.3 µM). For the same molecule, the MIC (H. influ. [6]; strain M366) was greater than 64 µg/mL, the MIC (H. influ. [6]; strain M370) was 4 µg/mL (≈ 9.82 µM) and the MIC (H. influ. [6]; strain M371) was 4 µg/mL (≈ 9.82 µM). For the same molecule, the MIC (H. influ. [6]; strain R465) was 16 µg/mL (≈ 39.3 µM), the MIC (H. influ. [6]; strain STEL) was greater than 64 µg/mL and the MIC (Staph. epi [2]; Table I, agar dilution, strain 222) was 0.5 µg/mL (≈ 1.23 µM). For the same molecule, the MIC (Staph. epi [2]; Table I, agar dilution, strain EPI1) was 2 µg/mL (≈ 4.91 µM), the MIC (H. influ. [3]; strain 76) was 4 µg/mL (≈ 9.82 µM) and the MIC (H. influ. [3]; strain C.L.) was 16 µg/mL (≈ 39.3 µM). For the same molecule, the MIC (Klebsiella; strain X26) was 2 µg/mL (≈ 4.91 µM).

Reference: US4482553A, “Benzothienylglycyl cephalosporin derivatives” (priority 1983, dated 1984)
